Earlier results as cited in article PMC2821159 (Bioorganic & medicinal chemistry, 2009).

Tested on: protein kinases

CNc1ncnc2c1c(-c1cccc(O)c1)cn2C(C)C [Compound 4, 3-(7-isopropyl-4-(methylamino)-7H-pyrrolo[2,3-d]pyrimidin-5yl)phenol]
inhibition against protein kinases: poor inhibition
